Laboratory results: ChEMBL document CHEMBL1201862, “PubChem BioAssay data set” (2004)
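Interpolation was linear, between the two tested concentrations surrounding the appropriate level; five concentrations were tested over 48 hours in 96-well plates. GI50 = concentration required for 50% inhibition of growth.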 The source made the active and inactive calls. No stated cut-off is given here; in the data, active = GI50 up to about 1.1 µM and inactive = higher.

How the values were obtained:
Assay in all cases: NCI-60 cell line screen, 48 h
[1] = test system: 786-0
[2] = test system: SNB-75
[3] = test system: OVCAR-5
[4] = test system: NCI-H460
[5] = test system: OVCAR-4
[6] = test system: NCI/ADR-RES
[7] = test system: HT-29
[8] = test system: HCT-116
[9] = test system: TK-10
[10] = test system: HCT-15
[11] = test system: M14
[12] = test system: EKVX
[13] = test system: HOP-92
[14] = test system: MDA-MB-231
[15] = test system: Hs-578T
[16] = test system: CAKI-1
[17] = test system: SK-OV-3
[18] = test system: NCI-H226
[19] = test system: MDA-MB-435
[20] = test system: DU-145

SMILES	GI50 [1]	GI50 [2]	GI50 [3]	GI50 [4]	GI50 [5]	GI50 [6]	GI50 [7]	GI50 [8]	GI50 [9]	GI50 [10] [µM]	GI50 [11]	GI50 [12]	GI50 [13]	GI50 [14]	GI50 [15]	GI50 [16]	GI50 [17]	GI50 [18]	GI50 [19]	GI50 [20]
CC(=O)O[C@H]1[C@@H](N2CCCCC2)C[C@H]2[C@@H]3CC=C4C[C@@H](N5CCCC5)CC[C@]4(C)[C@H]3CC[C@@]21C	36.7 µM (inactive)	> 100 µM (inactive)	48.6 µM (inactive)	91.6 µM (inactive)	> 100 µM (inactive)	> 100 µM (inactive)	15.3 µM (inactive)	64.3 µM (inactive)	> 100 µM (inactive)	19.4	19.2 µM (inactive)	> 100 µM (inactive)	91.8 µM (inactive)	> 100 µM (inactive)	> 100 µM (inactive)	> 100 µM (inactive)	> 100 µM (inactive)	> 100 µM (inactive)	28.6 µM (inactive)	–
CCOC(=O)C(NC(=O)CC(C)C)(Nc1ccc(C(F)(F)F)cc1)C(F)(F)F (stereo not given)	82.4 µM (inactive)	6.31 µM (inactive)	> 100 µM (inactive)	26.4 µM (inactive)	35.4 µM (inactive)	22.6 µM (inactive)	21 µM (inactive)	17.2 µM (inactive)	40.5 µM (inactive)	29	> 100 µM (inactive)	> 100 µM (inactive)	30.3 µM (inactive)	–	25.5 µM (inactive)	–	> 100 µM (inactive)	> 100 µM (inactive)	> 100 µM (inactive)	89.9 µM (inactive)
O=C1C/C(=C/c2ccc(/C=C3/CC(=O)N(c4cccc(Br)c4)C3=O)cc2)C(=O)N1c1cccc(Br)c1	58.1 µM (inactive)	23.5 µM (inactive)	> 100 µM (inactive)	> 100 µM (inactive)	> 100 µM (inactive)	–	> 100 µM (inactive)	> 100 µM (inactive)	> 100 µM (inactive)	> 100	> 100 µM (inactive)	> 100 µM (inactive)	50.2 µM (inactive)	–	–	> 100 µM (inactive)	> 100 µM (inactive)	> 100 µM (inactive)	–	–
CC1=NC(=Cc2ccc(O)cc2)C(=O)N1n1c(-c2ccccc2)nc2ccccc2c1=O	> 100 µM (inactive)	> 100 µM (inactive)	–	> 100 µM (inactive)	–	–	> 100 µM (inactive)	> 100 µM (inactive)	> 100 µM (inactive)	> 100	> 100 µM (inactive)	> 100 µM (inactive)	–	> 100 µM (inactive)	> 100 µM (inactive)	> 100 µM (inactive)	> 100 µM (inactive)	> 100 µM (inactive)	> 100 µM (inactive)	> 100 µM (inactive)
O=C1C=CC2(C=C1)C[C@H](NC(=O)OCc1ccccc1)C(=O)O2	14.3 µM (inactive)	25.1 µM (inactive)	20.1 µM (inactive)	24.3 µM (inactive)	18.2 µM (inactive)	–	13.8 µM (inactive)	16 µM (inactive)	15.2 µM (inactive)	11	15.5 µM (inactive)	12.9 µM (inactive)	16.3 µM (inactive)	17.5 µM (inactive)	40.6 µM (inactive)	18 µM (inactive)	> 67.1 µM (inactive)	62.4 µM (inactive)	–	30.5 µM (inactive)
O=C1c2ccccc2C(=O)c2c(NCCNCCO)ccc(O)c21	3.66 µM (inactive)	3.63 µM (inactive)	3.4 µM (inactive)	1.44 µM (inactive)	2.85 µM (inactive)	–	2.58 µM (inactive)	1.81 µM (inactive)	4.65 µM (inactive)	3.46	3.23 µM (inactive)	3.98 µM (inactive)	3.21 µM (inactive)	–	–	2.64 µM (inactive)	2.55 µM (inactive)	2.71 µM (inactive)	–	–
O=C1N=C(Nc2ccccc2Cl)SC1C(=O)Nc1ccc([N+](=O)[O-])cc1[N+](=O)[O-] (stereo not given)	> 100 µM (inactive)	66.1 µM (inactive)	> 100 µM (inactive)	> 100 µM (inactive)	> 100 µM (inactive)	–	> 100 µM (inactive)	> 100 µM (inactive)	51.6 µM (inactive)	> 100	> 100 µM (inactive)	> 100 µM (inactive)	32.5 µM (inactive)	–	–	> 100 µM (inactive)	> 100 µM (inactive)	82.8 µM (inactive)	–	–
CC(C)[Si](OC1=CCC[C@H]2NC(=O)[C@@H](Cc3ccc([N+](=O)[O-])cc3)[C@@]12C)(C(C)C)C(C)C	5.11 µM (inactive)	10.4 µM (inactive)	8.65 µM (inactive)	3.35 µM (inactive)	4.47 µM (inactive)	11.7 µM (inactive)	2.12 µM (inactive)	3.68 µM (inactive)	11 µM (inactive)	4.25	12.5 µM (inactive)	6.37 µM (inactive)	–	6.5 µM (inactive)	7.31 µM (inactive)	13.2 µM (inactive)	10.1 µM (inactive)	–	–	9.46 µM (inactive)
CCOC(=O)/C(I)=C/c1cc(OC)c(OC)c(OC)c1	4.44 µM (inactive)	28.8 µM (inactive)	6.52 µM (inactive)	40.6 µM (inactive)	14.7 µM (inactive)	–	4.55 µM (inactive)	3.26 µM (inactive)	19.3 µM (inactive)	3.9	3.87 µM (inactive)	15.8 µM (inactive)	11.6 µM (inactive)	–	–	4.27 µM (inactive)	26.9 µM (inactive)	4.69 µM (inactive)	–	–
Cn1c2cc(O)cc(O)c2c(=O)c2c([N+](=O)[O-])cccc21	> 100 µM (inactive)	> 100 µM (inactive)	> 100 µM (inactive)	> 100 µM (inactive)	> 100 µM (inactive)	–	> 100 µM (inactive)	> 100 µM (inactive)	> 100 µM (inactive)	> 100	> 100 µM (inactive)	> 100 µM (inactive)	> 100 µM (inactive)	–	–	> 100 µM (inactive)	> 100 µM (inactive)	> 100 µM (inactive)	–	–
CCCCCC(/C=C/[C@@H]1[C@H]2CC(=O)O[C@H]2C[C@H]1N1CCOCC1)OC1CCCO1 (stereo not given in full)	> 100 µM (inactive)	> 100 µM (inactive)	> 100 µM (inactive)	> 100 µM (inactive)	> 100 µM (inactive)	–	> 100 µM (inactive)	> 100 µM (inactive)	> 100 µM (inactive)	> 100	> 100 µM (inactive)	> 100 µM (inactive)	> 100 µM (inactive)	–	–	> 100 µM (inactive)	> 100 µM (inactive)	> 100 µM (inactive)	–	–
C=C(C)[C@H]1CC23C(=O)C(C(=O)C(C)C)=C(O)[C@](C)(C[C@H]2C1(C)C)C3=O [LALIBINONE B]	15.6 µM (inactive)	–	14.5 µM (inactive)	17 µM (inactive)	12.6 µM (inactive)	13.1 µM (inactive)	11.9 µM (inactive)	–	20.2 µM (inactive)	17.2	16.1 µM (inactive)	11 µM (inactive)	–	15.6 µM (inactive)	23 µM (inactive)	22 µM (inactive)	–	16.2 µM (inactive)	16.4 µM (inactive)	35.7 µM (inactive)
O=C(/C=C/c1ccccc1)c1ccc(NCc2nc3ccccc3[nH]2)cc1	3.81 µM (inactive)	4.61 µM (inactive)	10.8 µM (inactive)	3.27 µM (inactive)	9.23 µM (inactive)	–	2.58 µM (inactive)	3.22 µM (inactive)	11.7 µM (inactive)	4.11	9.02 µM (inactive)	8.65 µM (inactive)	6.18 µM (inactive)	–	–	10.1 µM (inactive)	6.37 µM (inactive)	4.19 µM (inactive)	–	–
CCOC(=O)c1c(SCCO)n(-c2ccccc2)c(=S)n(-c2ccccc2)c1=O	> 100 µM (inactive)	> 100 µM (inactive)	> 100 µM (inactive)	> 100 µM (inactive)	> 100 µM (inactive)	> 100 µM (inactive)	> 100 µM (inactive)	> 100 µM (inactive)	> 100 µM (inactive)	> 100	> 100 µM (inactive)	> 100 µM (inactive)	> 100 µM (inactive)	–	> 100 µM (inactive)	> 100 µM (inactive)	> 100 µM (inactive)	> 100 µM (inactive)	> 100 µM (inactive)	> 100 µM (inactive)
Oc1nc(S)nc2nc3c4cccnc4c4ccccc4c3nc12	> 100 µM (inactive)	48.4 µM (inactive)	> 100 µM (inactive)	57.3 µM (inactive)	> 100 µM (inactive)	–	> 100 µM (inactive)	> 100 µM (inactive)	> 100 µM (inactive)	> 100	> 100 µM (inactive)	> 100 µM (inactive)	> 100 µM (inactive)	–	> 100 µM (inactive)	> 100 µM (inactive)	> 100 µM (inactive)	–	> 100 µM (inactive)	> 100 µM (inactive)
CCOC(=O)NC(=O)c1cn(CCCOC(=O)CCCCCCCCCCC(=O)OCCCn2cc(C(=O)NC(=O)OCC)c(=O)n(C)c2=O)c(=O)n(C)c1=O	> 100 µM (inactive)	47.9 µM (inactive)	> 100 µM (inactive)	> 100 µM (inactive)	> 100 µM (inactive)	–	> 100 µM (inactive)	> 100 µM (inactive)	> 100 µM (inactive)	> 100	> 100 µM (inactive)	> 100 µM (inactive)	67.8 µM (inactive)	–	–	> 100 µM (inactive)	> 100 µM (inactive)	> 100 µM (inactive)	–	–
[O-][S+]1Cc2ccccc2CS1 (stereo not given)	15.7 µM (inactive)	20.3 µM (inactive)	18.2 µM (inactive)	22.7 µM (inactive)	16 µM (inactive)	–	15.8 µM (inactive)	20.5 µM (inactive)	21.8 µM (inactive)	34.9	15 µM (inactive)	22.9 µM (inactive)	14 µM (inactive)	–	–	13.9 µM (inactive)	52.8 µM (inactive)	87.1 µM (inactive)	–	–
